The results in this text go back to patent US20040171687A1 (priority 2002, published 2004).

For this series, the system named is human skin. Put plainly: Human skin contact with acidic solution. Particulars: solution with a pH of less than 0.5.

The structures appear in SMILES notation.

With `O=S(=O)(O)O` [sulfuric acid], the “irritation or injury of the hand put into the solution” value is on record as “an irritation would occur within a relatively short span of time”.
